In US10323043B2, “Derivatives of macrocyclic N-aryl-tricyclopyrimidine-2-amine polyethers as inhibitors of FTL3 and JAK” (PIERRE FABRE MEDICAMENT, priority 2014, dated 2019):

Key:
[1] = biological target: T1, FLT3-ITD (Homo sapiens, UniProt P36888); test: LanthaScreen TR-FRET binding test, FLT3-ITD; conditions: FLT3-ITD 15 nM, kinase tracer 236 3 nM, 25° C., 1 hour; read-out: Inhibition (IC50) of FLT3-ITD enzyme
T1 construct: FLT3-ITD (#0778-0000-1) and FLT3^D835Y (#14-610) proteins were purchased from ProQinase and Merck Millipore, respectively; fused on or other part: GST tag, inferred from detection with the anti-GST europium antibody
T1 sequence (P36888 1-993): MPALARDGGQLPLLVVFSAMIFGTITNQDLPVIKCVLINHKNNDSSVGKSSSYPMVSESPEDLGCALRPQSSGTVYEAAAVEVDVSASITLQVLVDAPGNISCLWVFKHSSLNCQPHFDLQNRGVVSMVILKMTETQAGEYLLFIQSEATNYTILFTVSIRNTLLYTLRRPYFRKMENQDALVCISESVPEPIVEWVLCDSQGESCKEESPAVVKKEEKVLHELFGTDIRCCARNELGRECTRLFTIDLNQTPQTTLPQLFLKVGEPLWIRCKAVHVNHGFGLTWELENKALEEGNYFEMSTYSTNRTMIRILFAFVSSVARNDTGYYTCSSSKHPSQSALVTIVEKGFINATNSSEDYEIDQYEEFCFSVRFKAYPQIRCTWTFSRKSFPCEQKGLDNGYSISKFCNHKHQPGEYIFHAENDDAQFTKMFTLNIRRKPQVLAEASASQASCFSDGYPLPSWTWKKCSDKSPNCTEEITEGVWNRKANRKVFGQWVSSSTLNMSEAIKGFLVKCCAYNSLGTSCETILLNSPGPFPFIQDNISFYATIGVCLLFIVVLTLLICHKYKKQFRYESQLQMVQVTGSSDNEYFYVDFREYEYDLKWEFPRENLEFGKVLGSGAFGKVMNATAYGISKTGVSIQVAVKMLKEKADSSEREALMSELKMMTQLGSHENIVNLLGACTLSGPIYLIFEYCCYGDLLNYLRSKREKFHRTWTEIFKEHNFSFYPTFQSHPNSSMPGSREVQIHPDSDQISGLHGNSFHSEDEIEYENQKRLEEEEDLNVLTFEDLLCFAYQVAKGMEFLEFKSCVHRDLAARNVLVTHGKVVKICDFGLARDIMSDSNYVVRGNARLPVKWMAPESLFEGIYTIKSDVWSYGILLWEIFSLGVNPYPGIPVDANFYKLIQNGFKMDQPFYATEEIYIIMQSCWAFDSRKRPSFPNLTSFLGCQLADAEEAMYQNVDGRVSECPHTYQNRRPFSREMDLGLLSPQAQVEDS
Protocol: (§1) FLT3 (#PV3182), JAK2 (#PV4210) and JAK3 (#PV3855) recombinant enzymes were purchased from Life Technologies. FLT3-ITD (#0778-0000-1) and FLT3^D835Y (#14-610) proteins were purchased from ProQinase and Merck Millipore, respectively. All the tests were carried out in 384-well plates. The principle of these binding tests is based on the LanthaScreen® TR-FRET methodology from Life Technologies.
The reaction mixture (15 μL total volume) contains the following compounds: 15 nM FLT3, FLT3-ITD or FLT3^D835Y, 3 nM kinase tracer 236 (Life Technologies, #PV5592) and 6 nM LanthaScreen® anti-GST antibody coupled to a europium chelate (Life Technologies, #PV5594) for FLT3-ITD and FLT3^D835Y or 6 nM LanthaScreen® anti-His antibody coupled to a europium chelate (Life Technologies, #PV5596) for FLT3.
(§2) The compounds are evaluated at 8 different concentrations prepared by making dilutions from a starting 10 mM stock solution in dimethylsulfoxide (DMSO) (Sigma, #D8418). The final DMSO concentration in the test is 1%. The reaction is carried out at 25° C. for 1 hour and detected on the EnVision® reader (Perkin Elmer) according to the recommendations of the supplier, Life Technologies.
(§3) The results are presented (Table 1) as the concentration values of the compound at which 50% of the kinase activity is inhibited, IC50 (μM), generated using the PRISM software (GraphPad).

[2] = biological target: T2, JAK3 (Homo sapiens, UniProt P52333); test: LanthaScreen TR-FRET binding test, JAK3; conditions: recombinant JAK3 15 nM, kinase tracer 236 3 nM, 25° C., 1 hour; read-out: Inhibition (IC50) of JAK3 enzyme
T2 construct: purchased Life Technologies PV3855
T2 sequence (P52333 1-1124): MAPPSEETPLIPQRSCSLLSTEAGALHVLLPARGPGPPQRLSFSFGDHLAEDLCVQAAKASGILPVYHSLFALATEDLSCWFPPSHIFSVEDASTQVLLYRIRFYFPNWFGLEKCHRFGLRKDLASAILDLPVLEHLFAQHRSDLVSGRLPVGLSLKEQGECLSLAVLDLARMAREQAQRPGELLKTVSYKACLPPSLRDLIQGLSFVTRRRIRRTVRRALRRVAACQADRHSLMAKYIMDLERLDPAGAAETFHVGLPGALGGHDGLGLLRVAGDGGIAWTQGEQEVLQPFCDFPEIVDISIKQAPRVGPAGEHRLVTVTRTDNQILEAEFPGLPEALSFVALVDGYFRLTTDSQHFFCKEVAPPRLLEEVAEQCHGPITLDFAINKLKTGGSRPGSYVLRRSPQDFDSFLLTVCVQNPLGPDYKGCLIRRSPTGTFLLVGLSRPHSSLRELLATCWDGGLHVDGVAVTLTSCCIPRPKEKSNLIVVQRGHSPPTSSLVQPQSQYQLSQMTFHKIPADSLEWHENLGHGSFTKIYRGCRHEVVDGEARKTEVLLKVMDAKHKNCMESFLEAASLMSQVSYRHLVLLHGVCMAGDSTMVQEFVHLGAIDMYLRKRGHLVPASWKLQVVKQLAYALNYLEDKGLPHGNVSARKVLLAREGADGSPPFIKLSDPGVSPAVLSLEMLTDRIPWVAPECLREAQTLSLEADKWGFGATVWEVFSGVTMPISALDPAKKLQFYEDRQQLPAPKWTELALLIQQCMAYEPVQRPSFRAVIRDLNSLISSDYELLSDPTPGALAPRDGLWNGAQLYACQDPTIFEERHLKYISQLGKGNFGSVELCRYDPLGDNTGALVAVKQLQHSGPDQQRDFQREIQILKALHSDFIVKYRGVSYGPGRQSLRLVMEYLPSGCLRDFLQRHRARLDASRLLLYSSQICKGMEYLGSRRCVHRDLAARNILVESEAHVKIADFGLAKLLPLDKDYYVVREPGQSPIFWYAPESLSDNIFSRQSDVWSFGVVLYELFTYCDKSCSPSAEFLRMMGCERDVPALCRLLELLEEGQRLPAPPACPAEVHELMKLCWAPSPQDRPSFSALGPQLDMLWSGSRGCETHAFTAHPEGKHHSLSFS
Protocol: as §1
The reaction mixture (15 μL total volume) contains the following compounds: 15 nM JAK2 or JAK3, 150 nM kinase tracer 236 (Life Technologies, #PV5592) for JAK2 or 3 nM for JAK3 and 6 nM LanthaScreen® anti-GST antibody coupled to a europium chelate (Life Technologies, #PV5594) for both enzymes.
as §2, §3

| Structure (SMILES) | IC50 [1] [nM] | IC50 [2] [nM] |
| --- | --- | --- |
| CN1CC=C(c2ccc3cc2OCCOCCOc2ccc4c(c2)-c2nc(ncc2CC4)N3)CC1 [Compound 23] | 1.7 | 110 |
| c1cc(N2C[C@H]3C[C@@H]2CN3)c2cc1Nc1ncc3c(n1)-c1cc(ccc1CC3)OCCOCCO2 [Compound 44] | 1.5 | 35 |
| c1cc(OCCN2CCCC2)c2cc1Nc1ncc3c(n1)-c1cc(ccc1CC3)OCCOCCO2 [Compound 14] | 2 | 70 |
| c1cc(N2CC3CNCC3C2)c2cc1Nc1ncc3c(n1)-c1cc(ccc1CC3)OCCOCCO2 (stereo not drawn) [Compound 29] | 0.79 | 18 |
| OC1CCN(c2ccc3cc2OCCOCCOc2ccc4c(c2)-c2nc(ncc2CC4)N3)CC1 [Compound 19] | 2.4 | 30 |
| c1cc(N2CC3CCC(C2)N3)c2cc1Nc1ncc3c(n1)-c1cc(ccc1CC3)OCCOCCO2 [Compound 42] | 1.1 | 13 |
| CN1CCN(c2ccc3cc2OCCOCCOc2ccc4c(c2)-c2nc(ncc2CC4)N3)CC1(C)C [Compound 40] | 0.51 | 17.6 |
| c1cc(N2CCNCC2)c2cc1Nc1ncc3c(n1)-c1cc(ccc1CC3)OCCOCCO2 [Compound 5] | 1.3 | 30 |
| CN1CCN(c2ccc3cc2OCCOCCOc2ccc4c(c2)-c2nc(ncc2CC4)N3)CC1 [Compound 3] | 0.14 | 54 |
| CN(C)C1CCN(c2ccc3cc2OCCOCCOc2ccc4c(c2)-c2nc(ncc2CC4)N3)C1 (stereo not drawn) [Compound 30] | 1 | 18 |
| c1cc(N2CCC(N3CCOCC3)C2)c2cc1Nc1ncc3c(n1)-c1cc(ccc1CC3)OCCOCCO2 (stereo not drawn) [Compound 7] | 6.4 | 120 |
| c1cc(N2CCC(N3CCCCC3)CC2)c2cc1Nc1ncc3c(n1)-c1cc(ccc1CC3)OCCOCCO2 [Compound 10] | 1.3 | 60 |
